Results as given in patent publication US9932355B2, “2,5,6,7-tetrasubstituted thiazolo[4,5-b]pyridine derivatives and use thereof” (KYUNGPOOK NATIONAL UNIVERSITY INDUSTRY-ACADEMIC COOPERATION …, priority 2014, dated 2018).

Tested on: CLP-induced sepsis mouse model
Test: Survival rate of CLP-induced sepsis mouse model
Type: in vivo
Settings: male ICR mice, CLP surgery; tail intravenous injection 12 and 50 hours after surgery; FIG. 1
Procedure: An anti-inflammation effect of the prepared compound was tested by a survival rate of the sepsis mouse model induced by peritonitis. A CLP-induced sepsis mouse model is an in vivo method for investigating an anti-inflammation action, and the manufacturing method of the mouse model is a widely used experiment method [Wang H, Nat. Med., 2004, 10, 1216-1221]. 40 six-week-old male ICR mice were divided into 10 mice per each group, and the survival rate was observed.
First, after the male mouse was anesthetized by respiration using isoflurane, the abdomen of the mouse was cut in the middle by approximately 2 cm to take out an appendix adjacent to intestines, and the appendix was tied up at a part apart from 0.5 mm from the end of the appendix with a 3.0-silk suture, pierced once with a 22-gauge needle, and sutured the cut part with a 4.0 silk suture. An abdomen of a sham mouse was cut and sutured without tie-up or piercing of the appendix, and after 12 and 50 hours of the surgery, the prepared compound was administered by mouse tail intravenous injection.

## COc1ccc(CNc2nc3nc4c(c(-c5ccc(OC)cc5)c3s2)CCCC4)cc1 [Compound 1-65, N-(4-methoxybenzyl)-9-(4-methoxyphenyl)-5,6,7,8-tetrahydrothiazolo[4,5-b]quinoline-2-amine]
  survival rate increased, compared to the only CLP-treated group: 60%
